Assay results reported in US20120283096A1, “AGENT FOR IMPROVING PLANT GROWTH, SEEDS, AND METHOD FOR IMPROVING PLANT GROWTH” (Incorporated Administrative Agency National Agricu lture …, priority 2010, published 2012).
Like-named read-outs stand apart in the source and are kept apart here.

Key:
decay of paddy seeds = experiment: Decay-inhibiting effect in tank farming without soil (Example 3); conditions: for Soaking: Inhibition of decay, Concentration of Molybdenum in Solution: paddy seeds left soaked two weeks in the solution at 30° C., no soil, water did not rot, no rotten smell; for Ten-minute soaking: Inhibition of decay, Concentration of Molybdenum in Solution: seeds soaked ten minutes in the solution, then two weeks in water at 30° C.; for Inhibition of decay, Amount of molybdenum or tungsten added to seed: seeds covered with substance, soaked two weeks in water at 30° C.
Method: (§1) The decay-inhibiting effect of molybdenum-containing substances in tank farming without soil was examined.
(§2) The possibility of growth and the inhibition of decay were determined in the same manner as above.

paddy rice [1] = experiment: Seedling establishment of paddy seeds soaked in solutions of readily-soluble molybdenum substances (Example 2-2, FIGS. 8 and 13); type: in vivo
Method: The examination of the proportion of seedling establishment was carried out under the same conditions as the examination whose results are shown in FIG. 8, except for the molybdenum concentration and the duration of soaking.

[2] = in water, powder, cited from earlier work
paddy seeds = experiment: Possibility of growth of paddy seeds in tank farming without soil (Example 3)
Method: as §1, §2

sulfide ion generation = experiment: Inhibition of sulfide ion generation, paddy seeds covered with slightly-soluble substances (Example 2-3, FIG. 9); conditions: approximately 0.1 mmol/g (per dry seeds) in terms of molybdenum or tungsten
From the text: The water on slightly germinated seeds was lightly wiped off, and immediately after that, the seeds were put with (lightly covered with) various amounts of the slightly-soluble substances shown in Table 1. […] The number of days for which sulfide ion generation was inhibited and the proportion of seedling establishment were examined.

sulfide ions = experiment: Inhibiting effect of molybdenum added to soil on sulfide ions (Example 1-3, FIG. 4); conditions: supernatant after shaking soil, 30° C., two weeks after seeding
Method: An inhibiting effect of a molybdenum-containing substance on sulfide ions was examined in relation to the degrees of generation of ferric sulfide in soil and the concentrations of molybdenum in soil solutions, and the results are shown in FIG. 4. The results shown in FIG. 4 were obtained from samples obtained in the same manner as in Example 1-2. Since methylene blue decolorizes in a reduced state, methylene blue weighing 0.1% of dry soil was added to each sample of soil so that a reduced state of the soil could be detected. The supernatant liquids obtained after shaking the samples of soil thus adjusted had molybdenum concentrations shown in FIG. 4.

paddy rice [3] = experiment: Seedling establishment of coated paddy seeds in submerged soil containers (Examples 4-1 to 4-4b, FIGS. 11, 14-19c); type: in vivo; conditions: dry seeds, 25 wt % calcium peroxide alone at 0.1 or less time the weight of dry seed, 30° C., FIG. 19c
Method: The germinated paddy seeds were soaked for one minute in a tenfold diluted solution of a commercially available laundry starch (manufactured by Rocket Soap Co., Ltd.; My Laundry Starch) containing approximately a little less than 10% by weight of polyvinyl alcohol, centrifuged at 1000 rpm for removal of the extra solution, and, immediately after that, lightly covered with different amounts of ammonium molybdophosphate, whereby seeds with different amounts of ammonium molybdophosphate were prepared.
(§3) It should also be noted that in each of FIGS. 14 through 15b, the horizontal axis represents the number of moles (mmol) of molybdenum or tungsten that adhered per gram of dry seed. In each of FIGS. 14 through 15b, the dots correspond to the numbers of moles of 0, 0.02, 0.05, 0.1, 0.2, 0.5, 1, and 2 mmol, starting from the left.
as §3, with “should” for “should also”, “16” for “14”, “18,” for “15b,”, “molybdenum” for “molybdenum or tungsten”
It should be noted that in FIG. 19a, the horizontal axis represents the number of moles (mmol) of molybdenum that adhered per gram of dry seed. In FIG. 19a, the dots correspond to the numbers of moles of 0, 0.02, 0.05, 0.1, 0.2, 0.5, 1, and 2 mmol, starting from the left.
The resulting seeds were allowed to spend time in a sufficiently wet condition so that the iron rusted, and then allowed to further spend overnight. […] Six containers were allotted for each condition, and the proportion of seedling establishment and the standard error were examined. It should be noted that in FIG. 19b, the horizontal axis represents the number of moles (mmol) of molybdenum that adhered per gram of dry seed. In FIG. 19b, the dots correspond to the numbers of moles of 0, 0.02, 0.05, 0.1, 0.2, 0.5, 1, and 2 mmol, starting from the left.
Six containers were allotted for each condition, and the proportion of seedling establishment and the standard error were examined. It should be noted that in FIG. 19c, the horizontal axis represents the actual weight ratios of 25 wt % calcium peroxide that adhered with respect to the weight of dry seed. In FIG. 19c, the dots correspond to the actual weight ratios of 25 wt % calcium peroxide of 0, 0.01, 0.02, 0.05, 0.1, 0.2, 0.5, and 1 time, starting from the left.

[4] = 3 M molybdenum solution, one-minute soaking, FIG. 13
[5] = seeds covered with substance, soaked two weeks in water at 30° C.
[6] = paddy seeds left soaked two weeks in the solution at 30° C., no soil, concentration at which sheath leaf elongation was observed
[7] = seeds soaked ten minutes in the solution, then two weeks in water at 30° C.

## 12-moblybdo(VI)phosphoric acid n-hydrate [Molybdophosphoric acid]
Decay of paddy seeds
  Soaking: Inhibition of decay, Concentration of Molybdenum in Solution: <0.02 M
  Ten-minute soaking: Inhibition of decay, Concentration of Molybdenum in Solution: 0.1 M
Paddy rice [1]; [4]
  proportion of seedling establishment: improvement in proportion of seedling establishment

## [H+].[H+].[NH4+].[NH4+].[NH4+].[NH4+].[NH4+].[NH4+].[NH4+].[NH4+].[NH4+].[NH4+].[O]=[W](=[O])([O-])[O-].[O]=[W](=[O])([O-])[O-].[O]=[W](=[O])([O-])[O-].[O]=[W](=[O])([O-])[O-].[O]=[W](=[O])([O-])[O-].[O]=[W](=[O])([O-])[O-].[O]=[W](=[O])=[O].[O]=[W](=[O])=[O].[O]=[W](=[O])=[O].[O]=[W](=[O])=[O].[O]=[W](=[O])=[O].[O]=[W](=[O])=[O] [Ammonium paratungstate, Ammonium tungstate parapentahydrate]
[2]
  Water solubility: Slightly soluble (has a percentage of solubility of 10% by weight or lower with respect to water)
Decay of paddy seeds
  Inhibition of decay, Amount of molybdenum or tungsten added to seed: <0.3 mmol/g
Paddy seeds; [5]
  Possibility of growth, Amount of molybdenum or tungsten added to seed: 0.3 mmol/g

## [Ca+2].[O]=[Mo](=[O])([O-])[O-] [Calcium molybdate]
Decay of paddy seeds
  Inhibition of decay, Amount of molybdenum or tungsten added to seed: 0.3 mmol/g
Paddy seeds; [5]
  Possibility of growth, Amount of molybdenum or tungsten added to seed: 1 mmol/g

## [Mg+2].[O]=[Mo](=[O])([O-])[O-] [Magnesium molybdate]
[2]
  Water solubility: Slightly soluble (has a percentage of solubility of 10% by weight or lower with respect to water)
[2]; listed as magnesium molybdate
  Water solubility: slightly soluble

## [O]=[Mo](=[O])([OH])[OH] [Molybdic acid]
[2]
  Water solubility: Slightly soluble (has a percentage of solubility of 10% by weight or lower with respect to water)
[2]; listed as molybdic acid
  Water solubility: slightly soluble
Sulfide ion generation
  number of days for which sulfide ion generation was inhibited: fourteen
Decay of paddy seeds
  Inhibition of decay, Amount of molybdenum or tungsten added to seed: <0.02 mmol/g
Paddy seeds; in vivo
  Possibility of growth, Amount of molybdenum or tungsten added to seed: > 2 mmol/g

## [K+].[K+].[O]=[Mo](=[O])([O-])[O-] [Potassium molybdate]
[2]
  Water solubility: Readily soluble
[2]; listed as potassium molybdate
  Water solubility: readily soluble
Decay of paddy seeds
  Soaking: Inhibition of decay, Concentration of Molybdenum in Solution: 0.3 M
  Ten-minute soaking: Inhibition of decay, Concentration of Molybdenum in Solution: 0.5 M
Sulfide ions
  molybdenum concentration at which sulfide ions were effectively inhibited: ≥ 0.2 mM
  molybdenum concentration up to which black circles were observed in the soil: ≤ 0.06 mM
Paddy seeds; [6]
  Soaking: Possibility of growth, Concentration of Molybdenum in Solution: 0.02 M
Paddy seeds; [7]
  Ten-minute soaking: Possibility of growth, Concentration of Molybdenum in Solution: 1< M

## O.O.[Na+].[Na+].[O]=[Mo](=[O])([O-])[O-] [Sodium molybdate, Sodium molybdate dihydrate]
[2]; dihydrate
  Water solubility: Readily soluble
[2]; listed as sodium molybdate, dihydrate
  Water solubility: readily soluble
Decay of paddy seeds
  Soaking: Inhibition of decay, Concentration of Molybdenum in Solution: 0.1 M
  Ten-minute soaking: Inhibition of decay, Concentration of Molybdenum in Solution: 0.3 M
Paddy seeds; [6]
  Soaking: Possibility of growth, Concentration of Molybdenum in Solution: 0.03 M
Paddy seeds; [7]
  Ten-minute soaking: Possibility of growth, Concentration of Molybdenum in Solution: 1< M

## [O]=[W](=[O])=[O] [Tungsten oxide, Tungsten oxide (VI)]
[2]
  Water solubility: Slightly soluble (has a percentage of solubility of 10% by weight or lower with respect to water)
Sulfide ion generation
  number of days for which sulfide ion generation was inhibited: fourteen
Decay of paddy seeds
  Inhibition of decay, Amount of molybdenum or tungsten added to seed: 1< mmol g^−1
Paddy seeds; in vivo
  Possibility of growth, Amount of molybdenum or tungsten added to seed: > 1 mmol/g

## [O]=[W](=[O])([OH])[OH] [Tungstic acid]
[2]
  Water solubility: Slightly soluble (has a percentage of solubility of 10% by weight or lower with respect to water)
Decay of paddy seeds
  Inhibition of decay, Amount of molybdenum or tungsten added to seed: 1< mmol g^−1
Paddy seeds; in vivo
  Possibility of growth, Amount of molybdenum or tungsten added to seed: > 1 mmol/g

## [Ca+2].[O-][O-] [calcium peroxide, reference compound]
Paddy rice [3]
  proportion of seedling establishment: ≤ 20%

## Ammonium molybdate tetrahydrate
Decay of paddy seeds
  Soaking: Inhibition of decay, Concentration of Molybdenum in Solution: <0.02 M
  Ten-minute soaking: Inhibition of decay, Concentration of Molybdenum in Solution: 0.1 M

## Ammonium phosphotungstate trihydrate [Ammonium tungstophosphate]
Decay of paddy seeds
  Inhibition of decay, Amount of molybdenum or tungsten added to seed: 1< mmol g^−1
Paddy seeds; in vivo
  Possibility of growth, Amount of molybdenum or tungsten added to seed: > 1 mmol/g

## Potassium phosphomolybdate [Potassium molybdophosphate]
[2]
  Water solubility: Slightly soluble (has a percentage of solubility of 10% by weight or lower with respect to water)
[2]; listed as potassium molybdophosphate
  Water solubility: slightly soluble

## Silicomolybdic acid n-hydrate [Molybdosilicic acid]
[2]
  Water solubility: Readily soluble
[2]; listed as molybdosilicic acid
  Water solubility: readily soluble
Paddy rice [1]; [4]
  proportion of seedling establishment: improvement in proportion of seedling establishment

## Sodium phosphomolybdate n-hydrate [Sodium molybdophosphate]
[2]
  Water solubility: Readily soluble
[2]; listed as sodium molybdophosphate
  Water solubility: readily soluble
Decay of paddy seeds
  Soaking: Inhibition of decay, Concentration of Molybdenum in Solution: <0.02 M
  Ten-minute soaking: Inhibition of decay, Concentration of Molybdenum in Solution: 0.1 M
Paddy rice [1]; ten-minute soaking, FIG. 8
  molybdenum concentration of the soaking solution at which proportion of seedling establishment improved: approximately 1 M
Paddy rice [1]; ten-minute soaking, soaking solution 2 M molybdenum
  proportion of seedling establishment: decrease in proportion of seedling establishment
Paddy seeds; in vivo
  Soaking: Possibility of growth, Concentration of Molybdenum in Solution: <0.02 M
  Ten-minute soaking: Possibility of growth, Concentration of Molybdenum in Solution: > 1 M
